Legend:
[1] = biological target: PI3Kα (Homo sapiens, UniProt P42336); assay: PI3Kα kinase assay (Adapta TR-FRET kit; capillary electrophoresis assay); assay type: biochemical; conditions: for IC50: mean of a triplicate experiment, standard deviation in small letters
Method: PI3K kinase activity was measured with the Adapta™ assay kit (Invitrogen, PV5099, Life Technologies, Carlsbad, CA, USA) while mTOR kinase activity was measured with the LANCE^TM Ultra kit (Perkin Elmer). […] Depending on the efficiency of the inhibitor, the level of ADP (which competes with the tracer) will vary, thereby directly affecting the binding of the tracer to the antibody. The TR-FRET signal will evolve accordingly. […] The experimental process was the following: the inhibitor solution (2.5 µL) was injected in a plate followed by the addition of 2.5 µL of PI3Kα and ATP/PIP2 (5 µL) solutions. After incubating for an hour at room temperature with no agitation and with the plate sealed, the kinase reaction was stopped by adding the Detection Solution to yield final concentrations of 10 nM for the tracer, 2 nM for the antibody and 30 mM of EDTA (5 µL). All of these compounds were diluted in a Detection Buffer (PV3574, Invitrogen) and the plate was sealed and incubated for the optimal time of 30 min at room temperature without shaking before the reading step.
The CE system used was a 1600 Hewlett Packard^3DCE (Agilent, Waldbronn, Germany) equipped with a photodiode array detection system. Agilent software 3D-CE Chemstation (rev B.04.02) was used to pilot the CE system and for signal acquisition. CE analyses were performed in silica capillaries (66 cm total length, 57.5 cm effective length, 50 µm i.d.) purchased from Polymicro Technologies (Phoenix, AZ, USA). New capillaries were conditioned by 1.0 M NaOH for 30 min and water for 5 min. They were then coated by rinsing with cationic PDADMAC solution (0.2% w/v) [46, 47]. The separation was conducted at −30 kV (reverse polarity) and at 30 °C. All rinse cycles were carried out at 4 bars. Between runs, the capillary was flushed for 1 min with water, 2 min with PDADMAC and 3 min with BGE.
(§6) All solutions were prepared with pure water, filtered through 0.45 µm PVDF Filter and stored at 4 °C. […] Their pH was measured with a MeterLab PHM201 Portable pH-Meter (Radiometer Analytical, Villeurbanne, France). […]

[2] = biological target: PI3Kβ (Homo sapiens, UniProt P42338); assay: PI3K isoform kinase assay, β (CE-assay); assay type: biochemical; conditions: read-out: IC50 on PI3K Isoforms, β
Method: (§1) The CE system used was a 1600 Hewlett Packard^3DCE (Agilent, Waldbronn, Germany) equipped with a photodiode array detection system. Agilent software 3D-CE Chemstation (rev B.04.02) was used to pilot the CE system and for signal acquisition. CE analyses were performed in silica capillaries (66 cm total length, 57.5 cm effective length, 50 µm i.d.) purchased from Polymicro Technologies (Phoenix, AZ, USA). New capillaries were conditioned by 1.0 M NaOH for 30 min and water for 5 min. They were then coated by rinsing with cationic PDADMAC solution (0.2% w/v). The separation was conducted at −30 kV (reverse polarity) and at 30 °C. All rinse cycles were carried out at 4 bars. Between runs, the capillary was flushed for 1 min with water, 2 min with PDADMAC and 3 min with BGE.
(§2) All solutions were prepared with pure water, filtered through 0.45 µm PVDF Filter and stored at 4 °C. For PI3K and mTOR assays, the incubation buffer was HEPES/NaOH/MgCl2 (25 mM/8.84 mM/5 mM). Its pH was 7.2 and ionic strength was about 60 mM. […] Their pH was measured with a MeterLab PHM201 Portable pH-Meter (Radiometer Analytical, Villeurbanne, France). […]
(§3) In all enzymatic assays, after incubation, the electric field (of −30 kV) was applied to separate the ADP formed during the enzymatic reaction from the other reactants. ADP was detected at 254 nm for quantification. […]

[3] = biological target: PI3Kγ (Homo sapiens, UniProt P48736); assay: PI3K isoform kinase assay, γ (CE-assay); assay type: biochemical; conditions: read-out: IC50 on PI3K Isoforms, γ
Method: as §1, §2, §3

[4] = biological target: PI3Kδ (Homo sapiens, UniProt O00329); assay: PI3K isoform kinase assay, δ (CE-assay); assay type: biochemical; conditions: read-out: IC50 on PI3K Isoforms, δ
Method: as §1, §2, §3

[5] = system: normal human fibroblast; assay: Cytotoxic assay on fibroblasts; assay type: cell-based; conditions: 48 h of treatment, cell number by Hoechst nuclei staining, mean of triplicate
Method: (§4) Cell culture. Skin normal fibroblastic cells were purchased from Lonza (Basel, Switzerland), HuH7, Caco-2, MDA-MB-231 and Hacat cancer cell lines were obtained from the ECACC collection (Porton Down, UK). Cells were grown at 37 °C, 5% CO2 in ECACC recommended media: DMEM for HuH7, MDA-MB-231 and fibroblast, EMEM for CaCo-2 and Hacat. All culture media were supplemented by 10% of FBS, 1% of penicillin-streptomycin and 2 mM glutamine.
(§5) Cytotoxic assay. Chemicals were solubilized in DMSO at a concentration of 10 mM (stock solution) and diluted in culture medium to the desired final concentrations. […] Cells were plated in 96-well plates (4000 cells/well). Twenty-four hours after seeding, cells were exposed to chemicals. After 48h of treatment, cells were washed in PBS and fixed in cooled 90% ethanol/5% acetic acid for 20 min and the nuclei were stained with Hoechst 33,342 (B2261 Sigma). Image acquisition and analysis were performed using a Cellomics ArrayScan VTI/HCS Reader (ThermoScientific). The survival percentages were calculated as the percentage of cell number after compound treatment over cell number after DMSO treatment. The relative IC50 were calculated using the curve fitting XLfit 5.5.0.5 (idbs) integrated in Microsoft Excel as an add-on. The 4 Parameter Logistic Model or Sigmoidal Dose-Response Model was used (fit = (A + ((B − A)/(1 + ((C/x)^D))))).

[6] = system: mammary carcinoma MDA-MB231; assay: Cytotoxic assay on MDA-MB231; assay type: cell-based; conditions: Homo sapiens, MDA-MB-231; 48 h of treatment, cell number by Hoechst nuclei staining, mean of triplicate
Method: as §4, §5

[7] = biological target: mTOR (Homo sapiens, UniProt P42345); assay: mTOR kinase assay (LANCE Ultra kit; capillary electrophoresis assay); assay type: biochemical; conditions: selectivity index, IC50 mTOR / IC50 PI3Kα
Method: The amount of antibody bound to the peptide is directly related to its rate of phosphorylation. […] The experimental process was the following: inhibitor solution (2.5 µL) was injected in a plate followed by the addition of 2.5 µL of mTOR, and ATP/peptide (2.5 µL) solutions. After incubating for two hours at room temperature with no agitation and with the plate sealed, the kinase reaction was stopped by adding 5 μL of a solution at 32 mM EDTA. After 5 min of plate agitation, the detection solution (CR97-100, Perkin-Elmer) containing the antibody (5 μL) was added in each well to yield a final concentration of 2 nM of the antibody. The plate was sealed and incubated for the optimal time of 1h at room temperature without shaking before the assay readout at 665 nm.
The CE system used was a 1600 Hewlett Packard^3DCE (Agilent, Waldbronn, Germany) equipped with a photodiode array detection system. […]
as §6

Chain of PI3Kα (P42336 whole entry, canonical isoform): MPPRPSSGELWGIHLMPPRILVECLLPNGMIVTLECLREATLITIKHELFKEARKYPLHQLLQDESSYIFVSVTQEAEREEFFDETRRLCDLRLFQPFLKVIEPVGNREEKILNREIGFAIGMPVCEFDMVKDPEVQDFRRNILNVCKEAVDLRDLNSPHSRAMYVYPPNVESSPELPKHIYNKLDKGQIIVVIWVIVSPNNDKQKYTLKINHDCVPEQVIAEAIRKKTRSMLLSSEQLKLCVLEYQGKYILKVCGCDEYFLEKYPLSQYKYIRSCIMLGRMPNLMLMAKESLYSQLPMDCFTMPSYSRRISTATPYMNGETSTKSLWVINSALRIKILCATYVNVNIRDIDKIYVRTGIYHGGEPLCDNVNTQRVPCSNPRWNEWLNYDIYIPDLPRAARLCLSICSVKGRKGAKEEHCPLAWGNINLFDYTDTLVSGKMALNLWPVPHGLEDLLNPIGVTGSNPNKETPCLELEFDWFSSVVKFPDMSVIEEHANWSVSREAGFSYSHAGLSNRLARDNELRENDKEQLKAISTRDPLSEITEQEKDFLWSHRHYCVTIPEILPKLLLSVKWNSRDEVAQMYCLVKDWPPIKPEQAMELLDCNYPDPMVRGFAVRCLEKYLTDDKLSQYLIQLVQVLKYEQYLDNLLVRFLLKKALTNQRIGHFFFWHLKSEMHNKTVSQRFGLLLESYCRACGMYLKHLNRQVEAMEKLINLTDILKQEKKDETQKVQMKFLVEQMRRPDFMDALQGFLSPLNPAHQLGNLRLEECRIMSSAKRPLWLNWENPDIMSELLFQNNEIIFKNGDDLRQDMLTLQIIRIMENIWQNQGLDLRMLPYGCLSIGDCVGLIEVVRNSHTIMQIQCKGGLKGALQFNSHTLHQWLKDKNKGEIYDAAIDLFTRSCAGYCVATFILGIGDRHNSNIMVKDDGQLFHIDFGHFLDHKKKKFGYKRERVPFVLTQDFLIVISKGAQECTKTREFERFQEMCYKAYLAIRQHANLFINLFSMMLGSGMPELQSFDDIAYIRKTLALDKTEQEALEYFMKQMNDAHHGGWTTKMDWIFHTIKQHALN
Chain of PI3Kα (P27986 whole entry partner, canonical isoform): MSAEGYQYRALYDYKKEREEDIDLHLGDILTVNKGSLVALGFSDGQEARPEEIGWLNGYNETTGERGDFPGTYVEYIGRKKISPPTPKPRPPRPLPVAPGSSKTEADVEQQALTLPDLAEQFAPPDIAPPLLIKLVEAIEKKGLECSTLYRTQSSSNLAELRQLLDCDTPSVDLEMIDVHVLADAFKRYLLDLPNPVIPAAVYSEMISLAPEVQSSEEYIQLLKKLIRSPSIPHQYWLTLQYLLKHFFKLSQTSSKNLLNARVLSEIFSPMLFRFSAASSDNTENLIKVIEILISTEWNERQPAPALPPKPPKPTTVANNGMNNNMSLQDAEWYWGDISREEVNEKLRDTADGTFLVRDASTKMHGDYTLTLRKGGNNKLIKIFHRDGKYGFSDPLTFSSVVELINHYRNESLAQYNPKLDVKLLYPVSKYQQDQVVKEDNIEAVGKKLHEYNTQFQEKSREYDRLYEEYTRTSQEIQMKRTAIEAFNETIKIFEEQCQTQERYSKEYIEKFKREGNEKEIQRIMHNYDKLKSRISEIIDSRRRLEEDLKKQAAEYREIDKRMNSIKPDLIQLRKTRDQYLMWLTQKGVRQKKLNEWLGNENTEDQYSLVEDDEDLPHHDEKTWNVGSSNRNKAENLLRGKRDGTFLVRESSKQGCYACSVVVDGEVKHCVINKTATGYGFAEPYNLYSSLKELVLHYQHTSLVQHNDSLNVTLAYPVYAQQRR
Chain of PI3Kγ (P48736 whole entry, canonical isoform): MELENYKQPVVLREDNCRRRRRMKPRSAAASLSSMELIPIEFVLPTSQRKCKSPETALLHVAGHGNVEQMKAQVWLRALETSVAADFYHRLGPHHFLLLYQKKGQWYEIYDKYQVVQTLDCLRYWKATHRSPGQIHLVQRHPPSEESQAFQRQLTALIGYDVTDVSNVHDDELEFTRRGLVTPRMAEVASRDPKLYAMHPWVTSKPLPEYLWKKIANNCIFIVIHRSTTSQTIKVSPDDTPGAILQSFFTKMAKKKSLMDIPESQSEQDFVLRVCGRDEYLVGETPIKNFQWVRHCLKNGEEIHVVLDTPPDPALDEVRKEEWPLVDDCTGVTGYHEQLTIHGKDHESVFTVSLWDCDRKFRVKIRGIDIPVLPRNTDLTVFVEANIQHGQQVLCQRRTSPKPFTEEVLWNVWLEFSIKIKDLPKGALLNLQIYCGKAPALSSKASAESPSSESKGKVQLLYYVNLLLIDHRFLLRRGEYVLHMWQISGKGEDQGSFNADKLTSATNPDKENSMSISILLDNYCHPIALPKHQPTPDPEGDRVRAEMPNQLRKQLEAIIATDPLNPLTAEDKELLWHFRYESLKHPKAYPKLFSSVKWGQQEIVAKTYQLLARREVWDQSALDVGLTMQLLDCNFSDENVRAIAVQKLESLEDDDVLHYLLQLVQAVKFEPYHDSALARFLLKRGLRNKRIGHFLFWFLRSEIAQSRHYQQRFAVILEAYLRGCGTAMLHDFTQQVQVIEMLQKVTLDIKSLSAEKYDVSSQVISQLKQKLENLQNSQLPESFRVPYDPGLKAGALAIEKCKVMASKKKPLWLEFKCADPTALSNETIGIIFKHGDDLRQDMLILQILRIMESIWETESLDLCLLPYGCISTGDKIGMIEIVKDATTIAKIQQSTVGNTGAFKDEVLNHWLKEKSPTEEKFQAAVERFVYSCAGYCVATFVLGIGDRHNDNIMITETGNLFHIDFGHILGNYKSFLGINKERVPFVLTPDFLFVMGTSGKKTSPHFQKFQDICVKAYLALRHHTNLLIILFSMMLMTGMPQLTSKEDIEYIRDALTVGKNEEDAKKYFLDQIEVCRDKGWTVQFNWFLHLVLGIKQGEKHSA
Chain of PI3Kβ (P42338 whole entry, canonical isoform): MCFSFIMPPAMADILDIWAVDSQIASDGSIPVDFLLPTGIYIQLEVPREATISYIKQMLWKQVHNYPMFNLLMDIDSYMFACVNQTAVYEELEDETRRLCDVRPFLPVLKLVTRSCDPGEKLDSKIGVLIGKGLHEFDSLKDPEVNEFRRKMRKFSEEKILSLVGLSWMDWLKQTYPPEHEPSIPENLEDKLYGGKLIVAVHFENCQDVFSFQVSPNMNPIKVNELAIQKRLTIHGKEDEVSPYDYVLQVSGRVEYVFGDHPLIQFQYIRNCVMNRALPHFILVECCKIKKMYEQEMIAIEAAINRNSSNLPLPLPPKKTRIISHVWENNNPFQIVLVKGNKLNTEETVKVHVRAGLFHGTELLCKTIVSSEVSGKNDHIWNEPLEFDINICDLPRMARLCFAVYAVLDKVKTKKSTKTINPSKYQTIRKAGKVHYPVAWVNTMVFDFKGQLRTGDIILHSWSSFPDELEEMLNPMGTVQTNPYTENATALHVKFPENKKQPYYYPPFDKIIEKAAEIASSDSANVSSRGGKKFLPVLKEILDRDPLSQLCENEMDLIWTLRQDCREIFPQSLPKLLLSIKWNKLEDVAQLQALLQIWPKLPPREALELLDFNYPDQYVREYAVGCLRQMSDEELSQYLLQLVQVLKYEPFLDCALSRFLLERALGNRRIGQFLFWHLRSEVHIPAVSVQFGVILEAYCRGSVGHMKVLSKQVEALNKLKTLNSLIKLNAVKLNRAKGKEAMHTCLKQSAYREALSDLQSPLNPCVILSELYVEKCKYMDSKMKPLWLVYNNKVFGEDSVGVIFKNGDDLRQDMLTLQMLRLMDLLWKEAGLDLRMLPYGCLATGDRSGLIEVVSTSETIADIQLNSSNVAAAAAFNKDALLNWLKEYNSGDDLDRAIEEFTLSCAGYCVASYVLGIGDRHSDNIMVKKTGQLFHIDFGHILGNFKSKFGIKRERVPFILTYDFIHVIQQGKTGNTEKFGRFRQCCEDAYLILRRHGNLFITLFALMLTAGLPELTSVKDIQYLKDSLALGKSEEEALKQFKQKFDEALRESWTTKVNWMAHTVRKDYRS
Chain of PI3Kβ (P27986 whole entry partner, canonical isoform): as the sequence (P27986 whole entry partner, canonical isoform) above
Chain of PI3Kδ (O00329 whole entry, canonical isoform): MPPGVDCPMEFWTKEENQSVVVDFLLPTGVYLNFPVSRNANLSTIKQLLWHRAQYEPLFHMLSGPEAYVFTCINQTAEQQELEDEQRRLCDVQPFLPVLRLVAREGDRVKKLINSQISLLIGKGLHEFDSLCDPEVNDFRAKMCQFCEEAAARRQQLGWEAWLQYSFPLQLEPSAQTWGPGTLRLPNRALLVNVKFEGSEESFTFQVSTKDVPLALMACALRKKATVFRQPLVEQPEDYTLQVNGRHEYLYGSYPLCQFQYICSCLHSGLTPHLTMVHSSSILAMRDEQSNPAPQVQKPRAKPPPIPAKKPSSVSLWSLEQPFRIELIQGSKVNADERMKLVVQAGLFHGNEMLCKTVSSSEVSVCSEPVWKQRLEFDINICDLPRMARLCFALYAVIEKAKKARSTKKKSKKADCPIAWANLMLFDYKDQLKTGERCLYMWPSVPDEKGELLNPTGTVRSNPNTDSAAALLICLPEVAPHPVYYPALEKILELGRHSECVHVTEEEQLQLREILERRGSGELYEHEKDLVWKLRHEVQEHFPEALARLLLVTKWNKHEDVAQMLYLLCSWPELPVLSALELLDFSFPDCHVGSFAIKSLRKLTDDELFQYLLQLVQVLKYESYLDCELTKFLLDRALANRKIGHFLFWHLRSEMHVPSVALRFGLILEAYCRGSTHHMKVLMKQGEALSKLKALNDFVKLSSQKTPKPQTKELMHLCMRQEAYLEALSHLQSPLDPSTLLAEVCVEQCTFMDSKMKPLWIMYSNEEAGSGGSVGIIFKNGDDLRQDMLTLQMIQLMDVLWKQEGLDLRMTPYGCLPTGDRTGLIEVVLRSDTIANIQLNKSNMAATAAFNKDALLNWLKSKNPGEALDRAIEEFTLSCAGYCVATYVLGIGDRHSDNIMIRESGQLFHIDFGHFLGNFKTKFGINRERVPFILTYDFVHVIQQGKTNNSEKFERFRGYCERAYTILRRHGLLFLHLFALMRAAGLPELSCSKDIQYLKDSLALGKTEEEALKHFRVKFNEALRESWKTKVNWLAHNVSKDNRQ
Chain of PI3Kδ (P27986 whole entry partner, canonical isoform): as the sequence (P27986 whole entry partner, canonical isoform) above

Row | SMILES | IC50 [1] | IC50 [2] | IC50 [3] | IC50 [4] | IC50 [5] | IC50 [6] | SI (mTOR/PI3Kα Ratio) [7] | fold reduction in the PI3Kα inhibition level ([1]; C-7 hydroxymethyl compared with chlorine or methyl derivatives 5 and 6)
1 | COCc1cn(Cc2cnc3c(N4CCOCC4)nc(-c4cccc(O)c4)nc3c2)nn1 [Compound 21, 3-(7-((4-(Methoxymethyl)-1H-1.2.3-triazol-1-yl)methyl)-4-morpholinylpyrido[3,2-d]pyrimidin-2-yl)phenol] | 10 nM | 50 nM | 2000 nM | 1200 nM | > 25000 nM |  |  | 
2 | [N-]=[N+]=NCc1cnc2c(N3CCOCC3)nc(-c3cccc(O)c3)nc2c1 [Compound 19, 3-(7-(Azidomethyl)-4-morpholinylpyrido[3,2-d]pyrimidin-2-yl)phenol] |  |  |  |  | > 25000 nM | > 25000 nM |  | 
3 | CO/N=C/c1cnc2c(N3CCOCC3)nc(-c3cccc(O)c3)nc2c1 [Compound 32, 2-(3-Hydroxyphenyl)-4-morpholinylpyrido[3,2-d]pyrimidine-7-carbaldehyde O-methyl oxime] | 3 nM |  |  |  |  | > 25000 nM | 33.3 | 
4 | Cc1cnc2c(N3CCOCC3)nc(-c3cccc(O)c3)nc2c1 [Compound 6, 3-(7-Methyl-4-morpholinylpyrido[3,2-d]pyrimidin-2-yl)phenol] |  | 450 nM | 5500 nM | 1400 nM |  |  | 4.6 | 
5 | Oc1cccc(-c2nc(N3CCOCC3)c3ncc(Cl)cc3n2)c1 [Compound 5, 7-Chloro-2-(3-hydroxyphenyl)-4-morpholinylpyrido[3,2-d]pyrimidine] |  |  |  |  | > 25000 nM | > 25000 nM |  | 
6 | OCc1cnc2c(N3CCOCC3)nc(-c3cccc(O)c3)nc2c1 [Compound 15, 3-(7-(Hydroxymethyl)-4-morpholinylpyrido[3,2-d]pyrimidin-2-yl)phenol] |  |  |  |  |  |  |  | 30 fold

From publication PMC8434050, “Design, Synthesis and SAR in 2,4,7-Trisubstituted Pyrido[3,2-d]Pyrimidine Series as Novel PI3K/mTOR Inhibitors” (Molecules, 2021)
